Measurements: article PMC3760392 (Bioorganic & medicinal chemistry, 2013)

Tests used:
D3 than D2 receptor = conditions: cited from earlier work
rD3 receptor = rD3 receptor (Rattus norvegicus, UniProt P19020)
rD2L receptor = rD2L receptor (Rattus norvegicus, UniProt P61169); conditions: read-out: Ki (nM), rD2L [3H]spiperone; HEK293 cells, mean ± SEM
Chain of rD2L receptor (P61169 whole entry): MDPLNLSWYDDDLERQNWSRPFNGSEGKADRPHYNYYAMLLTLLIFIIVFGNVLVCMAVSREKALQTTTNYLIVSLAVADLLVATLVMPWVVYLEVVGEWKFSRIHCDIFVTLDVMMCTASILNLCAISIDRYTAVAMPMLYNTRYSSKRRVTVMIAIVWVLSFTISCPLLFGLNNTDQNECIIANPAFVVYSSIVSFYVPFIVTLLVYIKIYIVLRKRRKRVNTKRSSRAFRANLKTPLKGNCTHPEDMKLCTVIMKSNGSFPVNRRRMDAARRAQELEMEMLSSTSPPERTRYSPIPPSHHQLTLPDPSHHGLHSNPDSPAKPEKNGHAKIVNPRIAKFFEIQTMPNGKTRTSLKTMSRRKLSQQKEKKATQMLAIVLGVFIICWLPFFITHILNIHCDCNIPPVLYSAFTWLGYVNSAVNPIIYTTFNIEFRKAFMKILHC

Chain of rD3 receptor (P19020 whole entry): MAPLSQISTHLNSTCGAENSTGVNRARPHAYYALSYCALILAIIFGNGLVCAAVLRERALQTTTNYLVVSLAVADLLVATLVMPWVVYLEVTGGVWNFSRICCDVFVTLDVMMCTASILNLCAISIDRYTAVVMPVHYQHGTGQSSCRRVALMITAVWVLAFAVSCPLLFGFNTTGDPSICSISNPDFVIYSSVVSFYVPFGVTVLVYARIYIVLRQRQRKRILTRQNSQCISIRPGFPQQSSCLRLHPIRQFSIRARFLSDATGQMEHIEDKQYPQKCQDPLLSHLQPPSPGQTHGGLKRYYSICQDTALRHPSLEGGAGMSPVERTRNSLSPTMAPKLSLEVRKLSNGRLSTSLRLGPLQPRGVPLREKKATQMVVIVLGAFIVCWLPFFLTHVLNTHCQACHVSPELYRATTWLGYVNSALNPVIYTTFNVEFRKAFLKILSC

CCCN[C@H]1CCc2nc(N)sc2C1 [pramipexole]
fold higher affinity for the D3 than D2 receptor (D3 than D2 receptor): 4- to 10 fold

N^6-(2-(4-Phenylpiperazin-1-yl)ethyl)-N^6-propyl-5,6,7,8-tetrahydro-1H-naphtho[2,3-d]imidazole-2,6-diamine [Compound 10e]
D2L/D3 (rD3 receptor; ratio of Ki rD2L / Ki rD3): 8.89 | Ki (rD3 receptor; read-out: Ki (nM), rD3 [3H]spiperone, HEK293 cells, mean ± SEM): 1790 nM | Ki (rD2L receptor): 15900 nM
